Assay results taken from patent publication US11608328B2, “Chemical probes to identify anti-mycobacterial MmpL3 inhibitors” (Creighton University, priority 2019, dated 2023).

Target: MmpL3tb(G253E) (Mycobacterium tuberculosis, UniProt P9WJV5, G253E)
Type: binding

With `C[C@@H]1[C@H]2C[C@@H](C[C@H]1NC(=O)c1cc3ccccc3[nH]1)C2(C)C` [North 4] the “BLI binding to MmpL3tb(G253E) versus WT” value was “unaltered by the G253E mutation”.
For `Cc1cc(C)c2cc(C(=O)NC3CCCCCCC3)[nH]c2c1` [North 21], the “BLI binding to MmpL3tb(G253E) versus WT” value was “no binding to MmpL3tb(G253E) was detected”.
With `CC(C)=CCC/C(C)=C/CNCCNC1C2CC3CC(C2)CC1C3` (stereo not drawn) [SQ109] the “BLI binding to MmpL3tb(G253E) versus WT” value was “no binding to MmpL3tb(G253E) was detected”.
